In the data set the test system is cell. Briefly: cytotoxicity in a physiological environment (FIG. 8A). Format: cell-based. To be noted: no alternating magnetic field.

As for `COc1cccc2c1C(=O)c1c(O)c3c(c(O)c1C2=O)C[C@@](O)(C(=O)CO)C[C@@H]3O[C@H]1C[C@H](N)[C@H](O)[C@H](C)O1` [free DOX, doxorubicin], the non-specific cytotoxicity entry is listed as “high”.

Source of the values: patent publication US20190008773A1, “MAGNETIC FIELD SENSITIVE NANO COMPLEX AND METHOD FOR MANUFACTURING THE SAME” (GWANGJU INSTITUTE OF SCIENCE AND TECHNOLOGY, priority 2017, published 2019).
